Molecules are shown by their SMILES.

The values below come from BindingDB's records for doi:10.1016/j.ejmech.2015.10.042 (China Pharmaceutical University, 2016).

The nature of the assay: Agonist activity at vitamin D3 receptor in human HL-60 cells assessed as induction of cell differentiation after 96 hrs by NBT dye-based microscopic analysis.
Broadly, the EC50 is the midpoint of the concentration-response curve. For `CCN(CC)CCCNC(=O)c1ccc(C(CC)(CC)c2ccc(OCC(=O)C(C)(C)C)c(C)c2)n1CC`, the EC50 is 22 nM. As for `CCn1c(C(=O)Oc2ccc(CC(=O)OC)cc2)ccc1C(CC)(CC)c1ccc(OCC(=O)C(C)(C)C)c(C)c1`, the EC50 is 2320 nM.

As to `CCn1c(C(=O)N(C)c2ccccc2)ccc1C(CC)(CC)c1ccc(OCC(=O)C(C)(C)C)c(C)c1`, the EC50 worked out at 18500 nM. `CCn1c(C(=O)N(CCC#N)CCC#N)ccc1C(CC)(CC)c1ccc(OCC(=O)C(C)(C)C)c(C)c1`: the concentration for a half-maximal effect (EC50) is 870 nM. As to `CCn1c(C(=O)Nc2ccc(OC(F)(F)F)cc2)ccc1C(CC)(CC)c1ccc(OCC(=O)C(C)(C)C)c(C)c1`, the EC50 is over 50000 nM. `CCN(CC)CCCNC(=O)c1ccc(C(CC)(CC)c2ccc(OCC(O)C(C)(C)C)c(C)c2)n1CC` (stereo unspecified): the EC50 is 66 nM. For the compound `CCn1c(C(=O)N(C)CCC#N)ccc1C(CC)(CC)c1ccc(OCC(=O)C(C)(C)C)c(C)c1`, the EC50 was 9800 nM. Turning to `CCn1c(C(=O)N(C)CC(=O)O)ccc1C(CC)(CC)c1ccc(OCC(=O)C(C)(C)C)c(C)c1`, the EC50 came to 1390 nM. For `CCn1c(C(=O)N[C@@H](C)CO)ccc1C(CC)(CC)c1ccc(OCC(O)C(C)(C)C)c(C)c1` (stereo partly specified), the half-maximal effective concentration (EC50) worked out at 8.5 nM. Regarding `CCn1c(C(=O)NCCCN2CCOCC2)ccc1C(CC)(CC)c1ccc(OCC(=O)C(C)(C)C)c(C)c1`, the EC50 came out at 240 nM.

Turning to `CCOC(=O)CC(C)OC(=O)c1ccc(C(CC)(CC)c2ccc(OCC(=O)C(C)(C)C)c(C)c2)n1CC` (stereo unspecified), the EC50 was over 50000 nM. Then `C#CC(C)OC(=O)c1ccc(C(CC)(CC)c2ccc(OCC(=O)C(C)(C)C)c(C)c2)n1CC` (stereo unspecified), with 210 nM; and `CCOc1ccc(NC(=O)c2ccc(C(CC)(CC)c3ccc(OCC(=O)C(C)(C)C)c(C)c3)n2CC)cc1`, with over 50000 nM; and `C#CCNC(=O)c1ccc(C(CC)(CC)c2ccc(OCC(O)C(C)(C)C)c(C)c2)n1CC` (stereo unspecified), with 240 nM. As for `CCOC(=O)CN(C)C(=O)c1ccc(C(CC)(CC)c2ccc(OCC(=O)C(C)(C)C)c(C)c2)n1CC`, the concentration for a half-maximal effect (EC50) is over 50000 nM. As for `CCn1c(C(=O)Nc2cccc(C(F)(F)F)c2)ccc1C(CC)(CC)c1ccc(OCC(=O)C(C)(C)C)c(C)c1`, the EC50 is over 50000 nM.

As to `CCN(CC)CCNC(=O)c1ccc(C(CC)(CC)c2ccc(OCC(=O)C(C)(C)C)c(C)c2)n1CC`, the EC50 was 91 nM.

For the compound `CCOc1ccc(NC(=O)c2ccc(C(CC)(CC)c3ccc(OCC(O)C(C)(C)C)c(C)c3)n2CC)cc1` (stereo unspecified), the EC50 worked out at 630 nM. For the compound `CCn1c(C(=O)OC(C)CCO)ccc1C(CC)(CC)c1ccc(OCC(=O)C(C)(C)C)c(C)c1` (stereo unspecified), the EC50 came out at 380 nM. Then `CCn1c(C(=O)N(C)CC(=O)O)ccc1C(CC)(CC)c1ccc(OCC(O)C(C)(C)C)c(C)c1` (stereo unspecified), with 740 nM; and `CCn1c(C(=O)Nc2ccc(OC(F)(F)F)cc2)ccc1C(CC)(CC)c1ccc(OCC(O)C(C)(C)C)c(C)c1` (stereo unspecified), with over 50000 nM; and `CCn1c(C(=O)NCCN)ccc1C(CC)(CC)c1ccc(OCC(=O)C(C)(C)C)c(C)c1`, with 120 nM. In the case of `CCn1c(C(=O)NCCN(C)C)ccc1C(CC)(CC)c1ccc(OCC(O)C(C)(C)C)c(C)c1` (stereo unspecified), the EC50 is 14 nM. In the case of `C#CCCOC(=O)c1ccc(C(CC)(CC)c2ccc(OCC(=O)C(C)(C)C)c(C)c2)n1CC`, the EC50 was 28800 nM.

Regarding `CCC(CC)(c1ccc(OCC(=O)C(C)(C)C)c(C)c1)c1ccc(OCC(=O)C(C)(C)C)c(C)c1` [LG190155], the EC50 stood at 590 nM. With `CCN(CC)CCNC(=O)c1ccc(C(CC)(CC)c2ccc(OCC(O)C(C)(C)C)c(C)c2)n1CC` (stereo unspecified), the EC50 stood at 110 nM.

Consider `CCn1c(C(=O)OCc2ccccn2)ccc1C(CC)(CC)c1ccc(OCC(=O)C(C)(C)C)c(C)c1`, for which the EC50 is over 50000 nM. Turning to `CCn1c(C(=O)Oc2ccc(CCO)cc2)ccc1C(CC)(CC)c1ccc(OCC(O)C(C)(C)C)c(C)c1` (stereo unspecified), the EC50 came out at 5100 nM. In the case of `CCn1c(C(=O)NCCCN(C)C)ccc1C(CC)(CC)c1ccc(OCC(O)C(C)(C)C)c(C)c1` (stereo unspecified), the EC50 worked out at 37 nM. As to `CCn1c(C(=O)OCc2ccc(F)cc2)ccc1C(CC)(CC)c1ccc(OCC(=O)C(C)(C)C)c(C)c1`, the EC50 came out at 9500 nM. For `CCn1c(C(=O)Nc2cccc(C(F)(F)F)c2)ccc1C(CC)(CC)c1ccc(OCC(O)C(C)(C)C)c(C)c1` (stereo unspecified), the EC50 was over 50000 nM.

With `CCOC(=O)c1ccc(OC(=O)c2ccc(C(CC)(CC)c3ccc(OCC(O)C(C)(C)C)c(C)c3)n2CC)cc1` (stereo unspecified), the EC50 was over 50000 nM. For `CC[C@@H](C)[C@H](NC(=O)c1ccc(C(CC)(CC)c2ccc(OCC(O)C(C)(C)C)c(C)c2)n1CC)C(=O)O` (stereo partly specified), the EC50 amounted to 2.3 nM. Take `CC[C@@H](C)[C@H](NC(=O)c1ccc(C(CC)(CC)c2ccc(OCC(=O)C(C)(C)C)c(C)c2)n1CC)C(=O)OC`: the EC50 amounted to 590 nM. As for `CCn1c(C(=O)NCCCN2CCOCC2)ccc1C(CC)(CC)c1ccc(OCC(O)C(C)(C)C)c(C)c1` (stereo unspecified), the EC50 turned out to be 18 nM.

Turning to `CCn1c(C(=O)NCCBr)ccc1C(CC)(CC)c1ccc(OCC(=O)C(C)(C)C)c(C)c1`, the half-maximal effective concentration (EC50) worked out at 1900 nM. Regarding `C#CCNC(=O)c1ccc(C(CC)(CC)c2ccc(OCC(=O)C(C)(C)C)c(C)c2)n1CC`, the EC50 worked out at 2200 nM.

In the case of `CCn1c(C(=O)NCC(OC)OC)ccc1C(CC)(CC)c1ccc(OCC(=O)C(C)(C)C)c(C)c1`, the EC50 came out at 130 nM. Turning to `CCn1c(C(=O)NCCN)ccc1C(CC)(CC)c1ccc(OCC(O)C(C)(C)C)c(C)c1` (stereo unspecified), the half-maximal effective concentration (EC50) stood at 10 nM. Regarding `CC[C@@H](C)[C@H](NC(=O)c1ccc(C(CC)(CC)c2ccc(OCC(=O)C(C)(C)C)c(C)c2)n1CC)C(=O)O`, the EC50 was 10 nM.

With `CCn1c(C(=O)NCC(OC)OC)ccc1C(CC)(CC)c1ccc(OCC(O)C(C)(C)C)c(C)c1` (stereo unspecified), the EC50 came out at 150 nM. For the compound `CCn1c(C(=O)OCc2ccccn2)ccc1C(CC)(CC)c1ccc(OCC(O)C(C)(C)C)c(C)c1` (stereo unspecified), the half-maximal effective concentration (EC50) is over 50000 nM. Then `C#CC(C)OC(=O)c1ccc(C(CC)(CC)c2ccc(OCC(O)C(C)(C)C)c(C)c2)n1CC` (stereo unspecified), with 200 nM.

On to `CCOC(=O)CN(C)C(=O)c1ccc(C(CC)(CC)c2ccc(OCC(O)C(C)(C)C)c(C)c2)n1CC` (stereo unspecified), for which the EC50 came to 210 nM. For the compound `CCn1c(C(=O)OCc2ccc(F)cc2)ccc1C(CC)(CC)c1ccc(OCC(O)C(C)(C)C)c(C)c1` (stereo unspecified), the EC50 is over 50000 nM.

On to `CCn1c(C(=O)NCCBr)ccc1C(CC)(CC)c1ccc(OCC(O)C(C)(C)C)c(C)c1` (stereo unspecified), for which the EC50 was determined as 130 nM. As for `C#CCCOC(=O)c1ccc(C(CC)(CC)c2ccc(OCC(O)C(C)(C)C)c(C)c2)n1CC` (stereo unspecified), the EC50 amounted to 1030 nM. With `CC[C@@H](C)[C@H](NC(=O)c1ccc(C(CC)(CC)c2ccc(OCC(O)C(C)(C)C)c(C)c2)n1CC)C(=O)OC` (stereo partly specified), the EC50 was 26 nM.

Consider `CCn1c(C(=O)NCCN(C)C)ccc1C(CC)(CC)c1ccc(OCC(=O)C(C)(C)C)c(C)c1`, for which the concentration for a half-maximal effect (EC50) was found to be 77 nM. As to `CCn1c(C(=O)N(C)CCC#N)ccc1C(CC)(CC)c1ccc(OCC(O)C(C)(C)C)c(C)c1` (stereo unspecified), the EC50 came to 1960 nM. Regarding `CCOC(=O)c1ccc(OC(=O)c2ccc(C(CC)(CC)c3ccc(OCC(=O)C(C)(C)C)c(C)c3)n2CC)cc1`, the EC50 came to 45600 nM.

For `CCn1c(C(=O)NCCCN(C)C)ccc1C(CC)(CC)c1ccc(OCC(=O)C(C)(C)C)c(C)c1`, the EC50 came out at 96 nM. As for `CCn1c(C(=O)N(C)c2ccccc2)ccc1C(CC)(CC)c1ccc(OCC(O)C(C)(C)C)c(C)c1` (stereo unspecified), the EC50 came out at 6400 nM. For `C=CCN(C)C(=O)c1ccc(C(CC)(CC)c2ccc(OCC(O)C(C)(C)C)c(C)c2)n1CC` (stereo unspecified) the value was 3950 nM; for `CCn1c(C(=O)N(CCC#N)CCC#N)ccc1C(CC)(CC)c1ccc(OCC(O)C(C)(C)C)c(C)c1` (stereo unspecified), 97 nM; for `C=CCN(C)C(=O)c1ccc(C(CC)(CC)c2ccc(OCC(=O)C(C)(C)C)c(C)c2)n1CC`, 21600 nM.
